From ChEMBL document CHEMBL5108067, “Discovery of Potent OTUB1/USP8 Dual Inhibitors Targeting Proteostasis in Non-Small-Cell Lung Cancer” (J Med Chem, 2022)
Active and inactive are the calls of the source. No cut-off for these calls is given here.

What was measured:
A549 = assay: Antiproliferative activity against human A549 cells harboring KRAS mutant incubated for 72 hrs by MTT assay; format: functional, cell-based; details: A549, 72 h
[1] = Cmax in ICR mouse at 10 mg/kg, po measured upto 1440 mins by LC-MS/MS analysis; format: ADME, organism-based; parameters: dose 10 mg/kg, time < 1440 min, route po; details: in vivo
[2] = target: T1, Ubiquitin carboxyl-terminal hydrolase 8 (Homo sapiens) (UniProt P40818); assay: Inhibition of N-terminal His-6 tagged USP8 (734 to 1110 residues) (unknown origin) expressed in Escherichia coli BL21 (DE3) cells at 100 nM measured after 3 hrs by fluorescence based Plate reader method relative to control; details: values are per cent of control
T1 sequence (whole entry): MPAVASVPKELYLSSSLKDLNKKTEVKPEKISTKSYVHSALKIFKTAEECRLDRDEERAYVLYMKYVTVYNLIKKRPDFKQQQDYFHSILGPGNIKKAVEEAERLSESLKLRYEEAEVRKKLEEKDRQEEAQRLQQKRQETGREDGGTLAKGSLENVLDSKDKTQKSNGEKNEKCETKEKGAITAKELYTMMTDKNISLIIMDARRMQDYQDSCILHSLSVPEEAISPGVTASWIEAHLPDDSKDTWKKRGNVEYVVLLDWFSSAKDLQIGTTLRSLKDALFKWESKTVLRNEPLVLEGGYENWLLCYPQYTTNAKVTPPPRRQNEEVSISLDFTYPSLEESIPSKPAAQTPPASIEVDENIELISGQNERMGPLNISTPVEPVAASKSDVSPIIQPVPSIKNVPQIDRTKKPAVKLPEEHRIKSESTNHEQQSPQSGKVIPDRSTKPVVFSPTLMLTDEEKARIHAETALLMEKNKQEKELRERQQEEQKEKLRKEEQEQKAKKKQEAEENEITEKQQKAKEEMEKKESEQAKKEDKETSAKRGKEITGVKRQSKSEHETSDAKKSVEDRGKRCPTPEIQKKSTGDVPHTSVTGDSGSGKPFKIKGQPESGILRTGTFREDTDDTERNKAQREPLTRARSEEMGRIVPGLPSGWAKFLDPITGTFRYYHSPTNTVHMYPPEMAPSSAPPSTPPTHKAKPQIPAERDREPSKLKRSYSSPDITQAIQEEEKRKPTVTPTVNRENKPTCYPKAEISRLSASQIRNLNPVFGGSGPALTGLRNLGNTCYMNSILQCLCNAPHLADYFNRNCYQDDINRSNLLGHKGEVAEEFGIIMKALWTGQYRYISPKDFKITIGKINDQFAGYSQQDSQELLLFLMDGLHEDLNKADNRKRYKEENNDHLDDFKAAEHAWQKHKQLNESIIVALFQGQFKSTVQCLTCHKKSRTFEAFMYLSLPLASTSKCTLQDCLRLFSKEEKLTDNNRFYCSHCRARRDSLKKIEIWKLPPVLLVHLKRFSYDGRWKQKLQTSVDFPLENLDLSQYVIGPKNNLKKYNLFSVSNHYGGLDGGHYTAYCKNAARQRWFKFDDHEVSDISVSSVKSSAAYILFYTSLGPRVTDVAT

[3] = target: T2, Ubiquitin thioesterase OTUB1 (Homo sapiens, UniProt Q96FW1); assay: Inhibition of OTUB1 in human NCI-H1975 cells assessed as reduction in UBE2N protein level at 500 nM measured for 24 hrs by immunoblotting analysis; format: cell-based
T2 sequence (Q96FW1 whole entry, the tested form may be a part): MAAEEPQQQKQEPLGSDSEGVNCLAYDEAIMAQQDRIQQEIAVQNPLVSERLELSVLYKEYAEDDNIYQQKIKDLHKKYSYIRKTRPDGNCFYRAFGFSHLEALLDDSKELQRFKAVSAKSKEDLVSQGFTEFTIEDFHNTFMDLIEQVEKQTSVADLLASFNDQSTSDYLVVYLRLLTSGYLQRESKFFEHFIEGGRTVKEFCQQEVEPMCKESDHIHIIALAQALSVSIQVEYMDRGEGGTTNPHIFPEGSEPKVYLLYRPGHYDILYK

[4] = target: T2, Ubiquitin thioesterase OTUB1; assay: Inhibition of N-terminal His-6 tagged OTUB1 (40 to 271 residues) (unknown origin) expressed in Escherichia coli BL21 (DE3) cells at 100 nM using Ub-Rho measured after 0.5 to 3 hrs by fluorescence based Plate reader method relative to control; details: time 0.5-3 hrs, values are per cent of control
NCI-H1703 = assay: Antiproliferative activity against human NCI-H1703 cells harboring wild type KRAS incubated for 72 hrs by MTT assay; format: functional, cell-based; details: NCI-H1703, 72 h
[5] = target: T1, Ubiquitin carboxyl-terminal hydrolase 8 (Homo sapiens); assay: Inhibition of N-terminal His-6 tagged USP8 (734 to 1110 residues) (unknown origin) expressed in Escherichia coli BL21 (DE3) cells at 10 nM measured after 3 hrs by fluorescence based Plate reader method relative to control; details: values are per cent of control
[6] = AUC in ICR mouse at 10 mg/kg, po measured upto 1440 mins by LC-MS/MS analysis; format: ADME, organism-based; parameters: time < 1440 min, dose 10 mg/kg, route po; details: in vivo
[7] = target: T3, Ubiquitin carboxyl-terminal hydrolase 8 (Homo sapiens, UniProt P40818); assay: Inhibition of N-terminal His-6 tagged USP8 (734 to 1110 residues) (unknown origin) expressed in Escherichia coli BL21 (DE3) cells measured after 3 hrs by fluorescence based Plate reader method
T3 sequence (P40818 whole entry): T1 sequence (whole entry)

EBC-1 = assay: Antiproliferative activity against human EBC-1 cells harboring wild type KRAS incubated for 72 hrs by MTT assay; format: functional, cell-based; details: EBC-1, 72 h
[8] = target: T2, Ubiquitin thioesterase OTUB1; assay: Inhibition of N-terminal His-6 tagged OTUB1 (40 to 271 residues) (unknown origin) expressed in Escherichia coli BL21 (DE3) cells using Ub-Rho measured after 0.5 to 3 hrs by fluorescence based Plate reader method
[9] = target: T1, Ubiquitin carboxyl-terminal hydrolase 8 (Homo sapiens); assay: Inhibition of USP8 in human NCI-H1975 cells assessed as reduction in EGFR protein level at 500 nM measured for 24 hrs by immunoblotting analysis; format: cell-based
[10] = Aqueous solubility of the compound measured after 24 hr by […] LC-MS/MS analysis; format: physicochemical; details: buffer
[11] = target: T4, Ubiquitin carboxyl-terminal hydrolase 2 (Homo sapiens, UniProt O75604); assay: Inhibition of USP2 (unknown origin) using Ub-Rho measured after 0.5 to 3 hrs
T4 sequence (O75604 whole entry): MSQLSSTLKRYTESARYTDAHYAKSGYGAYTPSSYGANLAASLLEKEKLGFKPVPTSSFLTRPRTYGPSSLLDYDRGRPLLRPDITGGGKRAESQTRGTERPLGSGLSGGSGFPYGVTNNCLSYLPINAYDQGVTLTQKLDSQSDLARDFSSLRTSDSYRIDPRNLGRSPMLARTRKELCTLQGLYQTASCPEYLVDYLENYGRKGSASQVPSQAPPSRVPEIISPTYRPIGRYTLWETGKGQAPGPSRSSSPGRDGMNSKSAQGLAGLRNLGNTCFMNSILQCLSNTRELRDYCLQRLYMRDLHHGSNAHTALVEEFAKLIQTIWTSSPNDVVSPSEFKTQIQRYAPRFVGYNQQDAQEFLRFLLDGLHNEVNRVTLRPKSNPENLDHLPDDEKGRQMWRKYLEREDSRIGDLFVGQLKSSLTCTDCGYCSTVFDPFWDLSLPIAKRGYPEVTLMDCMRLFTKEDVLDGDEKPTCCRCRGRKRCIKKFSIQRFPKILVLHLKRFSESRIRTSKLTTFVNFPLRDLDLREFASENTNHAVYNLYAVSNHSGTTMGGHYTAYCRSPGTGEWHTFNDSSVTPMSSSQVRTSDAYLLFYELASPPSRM

Ataxin-3 = Ataxin-3 (Homo sapiens, UniProt P54252); assay: Inhibition of Ataxin-3 (unknown origin) using Ub-Rho measured after 0.5 to 3 hrs
Ataxin-3, sequence (P54252 whole entry): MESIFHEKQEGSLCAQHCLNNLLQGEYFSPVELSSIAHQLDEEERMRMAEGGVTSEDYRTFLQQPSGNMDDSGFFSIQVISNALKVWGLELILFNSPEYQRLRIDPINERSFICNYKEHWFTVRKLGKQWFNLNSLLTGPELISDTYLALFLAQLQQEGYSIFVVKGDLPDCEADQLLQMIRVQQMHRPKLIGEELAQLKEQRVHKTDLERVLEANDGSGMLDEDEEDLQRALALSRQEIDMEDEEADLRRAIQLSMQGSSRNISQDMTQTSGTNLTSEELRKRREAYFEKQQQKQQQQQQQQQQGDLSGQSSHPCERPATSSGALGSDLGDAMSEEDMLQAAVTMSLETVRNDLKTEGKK

NCI-H23 = assay: Antiproliferative activity against human NCI-H23 cells harboring KRAS mutant incubated for 72 hrs by MTT assay; format: functional, cell-based; details: NCI-H23, 72 h

SMILES	IC50 (A549)	Cmax [1]	residual activity [2]	inhibition [3]	residual activity [4]	IC50 (NCI-H1703)	residual activity [5]	AUC at 24 h [6]	IC50 [7]	IC50 (EBC-1)	IC50 [8]	inhibition [9]	solubility [10]	IC50 [11]	IC50 (Ataxin-3)	IC50 (NCI-H23)
CN1CC[C@@H](Oc2ccc(Cl)c(-c3nc4c(o3)C(=O)c3ccccc3C4=O)c2)C1	701 nM	313 ng/mL	25%	Active	13.7%	113 nM	35.8%	229 ng·h/mL	1.27 nM	138 nM	7.1 nM	Active	Soluble	6200 nM	> 10000 nM	266 nM
CN1CC[C@@H](Oc2ccc(Cl)c(-c3nc4c(o3)C(=O)c3ccccc3C4=O)c2F)C1	1260 nM		20.5%		7.4%	173 nM	37.2%		2 nM	176 nM	0.42 nM		Soluble	> 10000 nM	> 10000 nM	423 nM
CN1CC[C@@H](Oc2ccc(F)c(-c3nc4c(o3)C(=O)c3ccccc3C4=O)c2Cl)C1	1000 nM	4270 ng/mL	16.5%	Active	7.3%	145 nM	21.7%	3750 ng·h/mL	0.28 nM	172 nM	0.17 nM	Active	Soluble	3800 nM	> 10000 nM	431 nM
O=C1c2ccccc2C(=O)c2oc(-c3cccnc3)nc21	662 nM		32.2%		18.2%	93 nM	43.4%		2.7 nM	122 nM	1.7 nM			5100 nM	> 10000 nM	281 nM
